From patent US7572779B2 (priority 2001, dated 2009)

Experiment: Open-label, single-dose, randomized, crossover oral bioavailability study in healthy postmenopausal women volunteers
Conditions: single oral tablet
Excerpt: The study was an open-label, single-dose, randomized, crossover, bioavailability study in nine healthy postmenopausal women volunteers.
Comparison of treatments was based on ratio of least square means from analysis of variance and ratio of individual subject parameter values, e.g. ratio=(AUCtreatment A)/(AUCtreatment B).

Structure (SMILES): CC(=O)Oc1ccc2c(c1)CC[C@@H]1[C@@H]2CC[C@]2(C)[C@@H](O)CC[C@@H]12 [17β-estradiol-3-acetate]
- Absorption as indicated by shape of serum estradiol concentration-time profiles: rapidly absorbed and hydrolyzed to 17β-estradiol in vivo
